Data reported in article PMC12113356, “Novel Anti-MRSA Peptide from Mangrove-Derived Virgibacillus chiguensis FN33 Supported by Genomics and Molecular Dynamics” (Marine Drugs, 2025).
≈ marks a conversion by molar mass, not a printed value. Like-named read-outs stand apart in the source and are kept apart here.

How the values were obtained:
[1] = DPPH radical-scavenging assay; settings: 0.1 mM DPPH, 25 °C, 30 min in darkness, absorbance 517 nm; mean ± SD, n = 3
Experimental: A 200 μL sample or ascorbic acid (Gammaco Ltd., Bangkok, Thailand) was added to 2 mL of 0.1 mM DPPH solution (Merck Ltd., Bangkok, Thailand) and incubated at 25 °C in darkness for 30 min. The DPPH color change from purple to pale yellow was observed, and the absorbance at 517 nm was measured using a UV–visible spectrophotometer.

[2] = tested on: MRSA strain 2468; test: Compatibility with surfactants (activity retention by agar well diffusion); type: physicochemical, Staphylococcus aureus; settings: surfactant 1% w/v alone, no AMP, agar well diffusion, % of untreated FN33 AMP sample, mean ± SD, n = 3
Experimental: The AMP solution was prepared in sterile purified water and adjusted to a final concentration of 32 µg/mL. To determine thermal stability, the AMP was exposed to temperatures of 30, 40, 60, 80, and 100 °C, as well as to autoclaving at 121 °C and 15 psi for 15 and 30 min. The susceptibility of the AMP to enzymatic degradation was examined by treating it with proteinase K, trypsin, and α-chymotrypsin (each at 1 mg/mL, Sigma-Aldrich, Warren, MI, USA), representing different proteolytic mechanisms. The AMP’s compatibility with surfactants was assessed by incubating it with 1% SDS, 1% CTAB, and 1% Triton X-100 (AppliChem GmbH, Darmstadt, Germany). Additionally, the effect of pH variations on AMP integrity was tested by adjusting the solution to pH 1, 4, 8, 10, and 14. The pH was neutralized to the original pH after incubation before conducting antibacterial activity tests. […] Stability data were expressed as residual activity percentages relative to the untreated sample (mean ± SD), and statistical significance was evaluated using two-way ANOVA and Tukey’s post hoc test, with a p-value < 0.05 considered significant.

[3] = tested on: S. aureus TISTR 517; test: Broth microdilution MIC/MBC (CLSI); type: cell-based, Staphylococcus aureus
Experimental: (§1) The broth microdilution method was performed following the guidelines of the Clinical and Laboratory Standards Institute (CLSI). Test strains including S. aureus TISTR 517 and MRSA strains 142, 1096, and 2468 were cultured on MH agar at 37 °C for 18 h. A single colony from each strain was suspended in 0.85% NaCl until it reached a turbidity of 0.1 OD at 625 nm (1 × 10^8 CFU/mL). The bacterial cells were then diluted to 5 × 10^6 CFU/mL using cation-adjusted Mueller–Hinton broth (CAMHB). Ten microliters of the cell suspension were added to each well of a 96-well plate to make the total volume in each well 100 µL. The AMP was added to achieve final concentrations ranging from 0.125 to 64 µg/mL. Vancomycin and cefoxitin were used as positive controls, while antibiotic-free samples were used as negative controls. The plate was incubated at 37 °C for 24 h. Each experiment was performed in triplicate. The MIC was determined as the lowest concentration that inhibited visible bacterial growth. For the MBC, 100 µL from each dilution was spread on MH agar and incubated at 37 °C for 24 h. The MBC was the lowest concentration at which no bacterial colonies appeared on the agar plates.

[4] = tested on: P. aeruginosa TISTR 357; test: Agar well diffusion method; type: cell-based; settings: 9 mm wells, MH agar, 37 °C 18 h, antibiotics 30 µg, mean ± SD, n = 3
Experimental: (§2) The optical density of the starter cultures was adjusted to 0.1 OD at 625 nm using 0.85% sterile NaCl solution before transferring 1 mL of the culture into 49 mL of fresh broth. The inoculum was then incubated at 30 °C with shaking at 150 rpm for 3 days. The CFS was obtained by centrifugation at 10,000× g at 4 °C for 15 min and filtered through a 0.2 µm sterile cellulose acetate syringe filter (Sigma-Aldrich, Warren, MI, USA). The antibacterial activity of the isolates was tested against S. aureus TISTR 517, E. coli TISTR 887, K. pneumoniae TISTR 1383, and P. aeruginosa TISTR 357, obtained from the Thailand Institute of Scientific and Technological Research (TISTR), Thailand, and three MRSA strains (strains 142, 1096, and 2468), provided by the medical technology laboratory of the School of Allied Health Sciences, Walailak University, Thailand. The pathogenic bacteria were incubated on MH agar at 37 °C for 18 h to obtain fresh cultures. Colonies of the test pathogens were scraped and suspended in 0.85% sterile NaCl solution. The test pathogen suspensions were adjusted to a turbidity equivalent to 0.1 OD at 625 nm before being spread onto MH agar plates. […] Wells with a diameter of 9 mm were made in the agar using a sterile cork borer. The collected CFS from the bacterial culture was transferred into the wells, and the plates were incubated at 37 °C for 18 h. Cefoxitin (30 µg) and vancomycin (30 µg) (Sigma-Aldrich Co., St. Louis, MO, USA) were used as positive controls. The experiment was repeated in triplicate, and the mean ± SD of the inhibition zone diameters was recorded.

[5] = tested on: K. pneumoniae TISTR 1383; test: Agar well diffusion method; type: cell-based; settings: 9 mm wells, MH agar, 37 °C 18 h, antibiotics 30 µg, mean ± SD, n = 3
Experimental: as §2

[6] = tested on: E. coli TISTR 887; test: Agar well diffusion method; type: cell-based; settings: 9 mm wells, MH agar, 37 °C 18 h, antibiotics 30 µg, mean ± SD, n = 3
Experimental: as §2

[7] = tested on: S. aureus TISTR 517; test: Agar well diffusion method; type: cell-based, Staphylococcus aureus; settings: 9 mm wells, MH agar, 37 °C 18 h, antibiotics 30 µg, mean ± SD, n = 3
Experimental: as §2

[8] = tested on: MRSA strain 1096; test: Agar well diffusion method; type: cell-based, Staphylococcus aureus; settings: 9 mm wells, MH agar, 37 °C 18 h, antibiotics 30 µg, mean ± SD, n = 3
Experimental: as §2

[9] = tested on: MRSA strain 142; test: Agar well diffusion method; type: cell-based, Staphylococcus aureus; settings: 9 mm wells, MH agar, 37 °C 18 h, antibiotics 30 µg, mean ± SD, n = 3
Experimental: as §2

[10] = tested on: MRSA strain 2468; test: Agar well diffusion method; type: cell-based, Staphylococcus aureus; settings: 9 mm wells, MH agar, 37 °C 18 h, antibiotics 30 µg, mean ± SD, n = 3
Experimental: as §2

[11] = tested on: MRSA strain 1096; test: Broth microdilution MIC/MBC (CLSI); type: cell-based; settings: Staphylococcus aureus
Experimental: as §1

[12] = tested on: MRSA strain 142; test: Broth microdilution MIC/MBC (CLSI); type: cell-based; settings: Staphylococcus aureus
Experimental: as §1

[13] = tested on: MRSA strain 2468; test: Broth microdilution MIC/MBC (CLSI); type: cell-based; settings: Staphylococcus aureus
Experimental: as §1

[14] = tested on: MRSA strains; test: Broth microdilution MIC/MBC (CLSI), for the MRSA strains together; type: cell-based; settings: Staphylococcus aureus
Experimental: as §1

[15] = tested on: S. aureus TISTR 517; test: Scanning electron microscopy of treated cells; type: cell-based, Staphylococcus aureus; settings: 1× MIC, 16 h / 18 h (figure legend), 30,000× magnification
Excerpt: (§3) SEM was used to examine morphological alterations in the bacterial cells. […] This appearance reflected their natural cellular structure.
(§4) Figure 5 SEM images captured at 30,000× magnification. […] The non-treatment condition served as a negative control.

[16] = tested on: MRSA strain 2468; test: Scanning electron microscopy of treated cells; type: cell-based, Staphylococcus aureus; settings: 1× MIC, 16 h / 18 h (figure legend), 30,000× magnification
Excerpt: as §3, §4

[17] = 100 µL of each dilution spread on MH agar, 37 °C 24 h, triplicate
[18] = broth microdilution, CAMHB, 37 °C 24 h, triplicate
[19] = 100 µL of each dilution spread on MH agar, 37 °C 24 h, triplicate, read-out: MBC
[20] = broth microdilution, CAMHB, 37 °C 24 h, triplicate, read-out: MIC
[21] = Staphylococcus aureus, TISTR517, 24 h

Row | Compound | Antibacterial activity against MRSA Strain 2468 of surfactant alone, on the scale of FN33 AMP activity retention (%) ([2]; 1 h) | Antibacterial activity against MRSA Strain 2468 of surfactant alone, on the scale of FN33 AMP activity retention (%) ([2]; 6 h) | Antibacterial activity against MRSA Strain 2468 of surfactant alone, on the scale of FN33 AMP activity retention (%) ([2]; 12 h) | MBC [3, 17] | MIC [3, 18] | Zone of Inhibition [4] | Zone of Inhibition [5] | Zone of Inhibition [6] | Zone of Inhibition [7] | Zone of Inhibition [8] | Zone of Inhibition [9] | Zone of Inhibition [10] | other results
1 | O=C1O[C@H]([C@@H](O)CO)C(O)=C1O [Ascorbic acid, ascorbic acid, reference compound] |  |  |  |  |  |  |  |  |  |  |  |  | IC50 (DPPH radical scavenging) [1]: 6.78 ± 1.58 µg/mL (≈ 38.5 µM)
2 | CCCCCCCCCCCCCCCC[N+](C)(C)C [CTAB, cetyltrimethylammonium bromide, reference compound] | 98.62 ± 0.69% | 98.89 ± 1.10% | 98.42 ± 0.72% |  |  |  |  |  |  |  |  |  | 
3 | CO[C@@]1(NC(=O)Cc2cccs2)C(=O)N2C(C(=O)O)=C(COC(N)=O)CS[C@@H]21 [Cefoxitin] |  |  |  | 2 µg/mL (≈ 4.68 µM) | 2 µg/mL (≈ 4.68 µM) | 0.00 ± 0.00 mm | 19.67 ± 0.88 mm | 35.12 ± 1.04 mm | 35.87 ± 0.46 mm | 0.00 ± 0.00 mm | 0.00 ± 0.00 mm | 0.00 ± 0.00 mm | MBC ([3]; Staphylococcus aureus, TISTR517, 100 µL of each dilution spread on MH agar, 37 °C 24 h, triplicate, read-out: MBC): 2 µg/mL (≈ 4.68 µM); MIC ([3]; Staphylococcus aureus, TISTR517, broth microdilution, CAMHB, 37 °C 24 h, triplicate, read-out: MIC): 2 µg/mL (≈ 4.68 µM); MBC [11, 19]: > 64 µg/mL; MIC [11, 20]: > 64 µg/mL; MBC [12, 19]: > 64 µg/mL; MIC [12, 20]: > 64 µg/mL; MBC [13, 19]: > 64 µg/mL; MIC [13, 20]: > 64 µg/mL; MBC ([14]; text statement for the MRSA strains (142, 1096, 2468) together, read-out: MBC): > 64 µg/mL; MIC ([14]; text statement for the MRSA strains (142, 1096, 2468) together, read-out: MIC): > 64 µg/mL
4 | CCCCCCCCCCCCOS(=O)(=O)[O-].[Na+] [SDS, sodium dodecyl sulfate, reference compound] | 110.10 ± 0.84 % | 109.30 ± 0.56 % | 108.93 ± 0.57 % |  |  |  |  |  |  |  |  |  | 
5 | CN[C@H](CC(C)C)C(=O)N[C@H]1C(=O)N[C@@H](CC(N)=O)C(=O)N[C@H]2C(=O)N[C@H]3C(=O)N[C@H](C(=O)N[C@H](C(=O)O)c4cc(O)cc(O)c4-c4cc3ccc4O)[C@H](O)c3ccc(c(Cl)c3)Oc3cc2cc(c3O[C@@H]2O[C@H](CO)[C@@H](O)[C@H](O)[C@H]2O[C@H]2C[C@](C)(N)[C@H](O)[C@H](C)O2)Oc2ccc(cc2Cl)[C@H]1O [Vancomycin] |  |  |  | 2 µg/mL (≈ 1.38 µM) | 2 µg/mL (≈ 1.38 µM) | 0.00 ± 0.00 mm | 0.00 ± 0.00 mm | 0.00 ± 0.00 mm | 23.37 ± 1.27 mm | 24.38 ± 0.51 mm | 24.13 ± 1.27 mm | 24.64 ± 1.02 mm | MBC [3, 21]: 2 µg/mL (≈ 1.38 µM); MIC [3, 21]: 2 µg/mL (≈ 1.38 µM); morphological changes under SEM [15]: complete cell lysis; morphological changes under SEM [16]: complete cell lysis; MBC ([11]; 24 h): 2 µg/mL (≈ 1.38 µM); MIC ([11]; 24 h): 2 µg/mL (≈ 1.38 µM); MBC ([12]; 24 h): 2 µg/mL (≈ 1.38 µM); MIC ([12]; 24 h): 2 µg/mL (≈ 1.38 µM); MBC ([13]; 24 h): 2 µg/mL (≈ 1.38 µM); MIC ([13]; 24 h): 2 µg/mL (≈ 1.38 µM); MBC ([14]; MRSA): 2 µg/mL (≈ 1.38 µM); MIC ([14]; MRSA): 2 µg/mL (≈ 1.38 µM)
6 | Triton X-100 [reference compound] | 0.00 ± 0.00 % | 0.00 ± 0.00 % | 0.00 ± 0.00 % |  |  |  |  |  |  |  |  |  | 
